Results on two molecules are retold here after paper PMC8070004, “Isorhamnetin Ameliorates Dry Eye Disease via CFTR Activation in Mice” (International Journal of Molecular Sciences, 2021).

Data set [1] addresses T1, CFTR (Mus musculus, UniProt P26361).
T1 construct: from tissue; host or cells: ocular surface of anesthetized CD-1 mice (in vivo)
The data set can be described thus: Open-circuit ocular surface potential difference (PD) in CD-1 mice. The following applies: 20 μM CFTRinh-172. The class given is in vivo.

Data set [2] deals with CD-1 mice. As to the kind of experiment: Tear volume by phenol red thread tear test in normal CD-1 mice. The class given is in vivo, mouse. To be noted: isorhamnetin 30 µM with CFTRinh-172 20 µM. The protocol: Tear volume was measured using phenol red threads (Zone-Quick, Oasis Medical, Glendora, CA, USA) by placing them in the lateral canthi of normal CD-1 or dry eye model-treated BL6 mice for 10 s using forceps. Tear volume was measured using a Vernier caliper as the length of thread wetting under a microscope. For normal CD-1 mice, serial measurements were done to evaluate compound pharmacodynamics compared to the vehicle after topical application of a single, 2.5-μL drop of compound formulations containing 20 μM forskolin, 30 μM isorhamnetin, or 20 μM CFTRinh-172 in PBS with 0.1% DMSO.

Data set [3] deals with WT-CFTR (Homo sapiens, UniProt P13569). As to the kind of experiment: Whole-cell patch clamp in CHO-K1 cells expressing WT-CFTR. Set-up: expressed in transfected cells; host or cells: CHO-K1. The class given is cell-based. To be noted: 10 μM CFTRinh-172. As for the experimental part:
Whole-cell, patch clamp recordings were performed on CFTR-expressing CHO cells. The bath solution contained (in mM) 140 NMDG-Cl, 1 CaCl2, 1 MgCl2, 10 glucose, and 10 HEPES (pH 7.4). The pipette solution contained (in mM) 130 CsCl, 0.5 EGTA, 1 MgCl2, 1 Tris-ATP, and 10 HEPES (pH 7.2). […] Seal resistances were between 3 and 10 GΩ. After establishing the whole-cell configuration, CFTR was activated by forskolin and/or isorhamnetin. […] Recordings were made at room temperature using an Axopatch-200B (Axon Instruments, San Jose, CA, USA). Currents were digitized with a Digidata 1440A converter (Axon Instruments), filtered at 5 kHz, and sampled at 1 kHz.
(In patch-clamp work, channel activity is measured electrically.)

The subject of data set [4] is corneal epithelial (CorE) cells. The data set can be described thus: MTS cell viability assay in CorE cells. To be noted: 48 h; isorhamnetin 30 μM, Triton X-100 0.01%. The class given is cell-based, human. The protocol: (§1) Immortalized human CorE [47] and immortalized human ConjE (Innoprot, Bizkaia, Spain) cells were plated on 96-well microplates. After 24 h incubation, cells were treated with 30 μM isorhamnetin or 0.01% Triton X-100 and then they were incubated for two days. An equal amount of DMSO was added to the control. The culture medium and the compounds were changed every 12 h. To assess cell proliferation, after 48 h of incubation with the compound, the cells were reincubated with MTS for 1 h. The soluble formazan produced by cellular reduction of MTS was quantified by measuring the absorbance at 490 nm with Infinite M200 (Tecan, Grödig, Austria) microplate reader. MTS assay was done using CellTiter 96 AQueous One Solution Cell Proliferation Assay kit (Promega, Madison, WI, USA).
A general note: Tetrazolium dyes change colour on reduction, which living cells bring about.

Data set [5] has as its system conjunctival epithelial (ConjE) cells. As to the kind of experiment: MTS cell viability assay in ConjE cells. In kind it is cell-based, human. To be noted: 48 h; isorhamnetin 30 μM, Triton X-100 0.01%. The protocol:
as §1

Chain of WT-CFTR (P13569 whole entry): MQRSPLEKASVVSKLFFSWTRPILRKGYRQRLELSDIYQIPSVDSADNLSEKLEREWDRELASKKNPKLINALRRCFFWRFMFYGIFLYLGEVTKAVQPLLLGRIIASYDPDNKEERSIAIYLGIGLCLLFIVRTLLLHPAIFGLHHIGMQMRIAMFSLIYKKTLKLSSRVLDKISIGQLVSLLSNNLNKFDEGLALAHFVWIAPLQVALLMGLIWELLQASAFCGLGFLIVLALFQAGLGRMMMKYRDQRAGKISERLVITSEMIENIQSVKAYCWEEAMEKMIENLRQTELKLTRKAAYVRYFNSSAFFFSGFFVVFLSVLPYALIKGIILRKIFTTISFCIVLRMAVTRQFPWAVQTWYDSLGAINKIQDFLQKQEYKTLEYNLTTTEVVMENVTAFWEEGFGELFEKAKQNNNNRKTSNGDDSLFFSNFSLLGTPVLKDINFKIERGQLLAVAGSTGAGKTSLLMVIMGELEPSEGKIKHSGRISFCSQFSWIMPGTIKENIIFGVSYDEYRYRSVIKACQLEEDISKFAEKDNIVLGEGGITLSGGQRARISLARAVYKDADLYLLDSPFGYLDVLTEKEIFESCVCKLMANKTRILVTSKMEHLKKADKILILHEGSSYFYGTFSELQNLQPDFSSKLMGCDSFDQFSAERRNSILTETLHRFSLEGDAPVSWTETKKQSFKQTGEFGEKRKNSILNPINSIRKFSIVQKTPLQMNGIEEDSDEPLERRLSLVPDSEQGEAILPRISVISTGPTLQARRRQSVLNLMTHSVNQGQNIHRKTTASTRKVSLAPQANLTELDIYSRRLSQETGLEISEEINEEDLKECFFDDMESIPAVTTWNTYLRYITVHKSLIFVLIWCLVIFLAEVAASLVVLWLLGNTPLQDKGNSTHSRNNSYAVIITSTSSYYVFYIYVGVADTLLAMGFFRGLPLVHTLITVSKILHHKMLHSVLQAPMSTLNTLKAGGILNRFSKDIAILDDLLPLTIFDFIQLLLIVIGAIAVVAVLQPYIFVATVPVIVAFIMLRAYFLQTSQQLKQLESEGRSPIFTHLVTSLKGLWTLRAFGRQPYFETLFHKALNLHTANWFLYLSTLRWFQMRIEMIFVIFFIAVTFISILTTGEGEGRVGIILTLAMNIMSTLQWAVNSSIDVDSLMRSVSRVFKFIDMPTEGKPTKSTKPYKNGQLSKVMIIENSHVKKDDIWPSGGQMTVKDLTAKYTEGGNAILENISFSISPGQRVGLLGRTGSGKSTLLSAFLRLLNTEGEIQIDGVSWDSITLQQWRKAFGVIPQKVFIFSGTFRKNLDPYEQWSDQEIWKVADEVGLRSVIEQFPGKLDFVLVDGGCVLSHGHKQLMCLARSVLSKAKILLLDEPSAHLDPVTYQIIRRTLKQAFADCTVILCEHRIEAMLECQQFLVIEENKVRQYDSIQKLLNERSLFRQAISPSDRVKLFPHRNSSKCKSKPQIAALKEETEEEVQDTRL
T1 sequence (P26361 whole entry): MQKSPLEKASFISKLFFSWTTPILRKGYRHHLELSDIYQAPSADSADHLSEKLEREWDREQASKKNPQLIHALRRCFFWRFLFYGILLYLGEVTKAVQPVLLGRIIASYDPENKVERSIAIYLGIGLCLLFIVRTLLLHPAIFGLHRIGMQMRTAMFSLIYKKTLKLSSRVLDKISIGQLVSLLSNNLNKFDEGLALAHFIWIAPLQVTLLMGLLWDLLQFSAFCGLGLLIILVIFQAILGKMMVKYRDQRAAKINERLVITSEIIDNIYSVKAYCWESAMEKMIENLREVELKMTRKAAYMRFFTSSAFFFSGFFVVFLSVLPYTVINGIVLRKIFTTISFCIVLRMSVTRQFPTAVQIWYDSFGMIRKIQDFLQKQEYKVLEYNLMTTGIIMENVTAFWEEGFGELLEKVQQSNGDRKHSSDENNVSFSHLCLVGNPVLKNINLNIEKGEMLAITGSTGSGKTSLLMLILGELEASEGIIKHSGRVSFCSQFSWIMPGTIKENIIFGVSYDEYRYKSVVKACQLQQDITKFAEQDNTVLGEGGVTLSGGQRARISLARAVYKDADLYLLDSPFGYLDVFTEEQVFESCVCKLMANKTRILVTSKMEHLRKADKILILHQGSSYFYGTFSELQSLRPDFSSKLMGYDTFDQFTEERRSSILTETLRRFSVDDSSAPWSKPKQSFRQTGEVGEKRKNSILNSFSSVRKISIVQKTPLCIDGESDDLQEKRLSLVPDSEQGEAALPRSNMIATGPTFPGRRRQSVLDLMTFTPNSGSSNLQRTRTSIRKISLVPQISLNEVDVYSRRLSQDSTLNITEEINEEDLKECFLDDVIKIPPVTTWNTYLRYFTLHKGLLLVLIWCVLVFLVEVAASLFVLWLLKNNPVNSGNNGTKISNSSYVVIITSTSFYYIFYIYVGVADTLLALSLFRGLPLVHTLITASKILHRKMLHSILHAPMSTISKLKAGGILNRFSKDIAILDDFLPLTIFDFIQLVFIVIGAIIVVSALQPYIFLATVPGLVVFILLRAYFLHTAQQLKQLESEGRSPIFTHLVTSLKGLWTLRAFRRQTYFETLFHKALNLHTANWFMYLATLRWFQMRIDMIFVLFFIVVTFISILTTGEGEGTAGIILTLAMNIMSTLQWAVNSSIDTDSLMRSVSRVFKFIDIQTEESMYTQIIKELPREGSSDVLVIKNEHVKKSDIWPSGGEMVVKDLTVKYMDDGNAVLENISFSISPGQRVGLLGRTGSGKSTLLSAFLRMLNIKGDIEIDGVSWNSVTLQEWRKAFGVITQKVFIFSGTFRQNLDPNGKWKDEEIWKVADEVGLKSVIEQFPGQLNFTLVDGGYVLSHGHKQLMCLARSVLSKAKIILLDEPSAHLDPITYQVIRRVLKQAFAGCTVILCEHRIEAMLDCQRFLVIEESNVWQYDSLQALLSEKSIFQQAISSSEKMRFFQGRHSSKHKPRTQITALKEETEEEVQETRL

As to `O=C(O)c1ccc(/C=C2\SC(=S)N(c3cccc(C(F)(F)F)c3)C2=O)cc1` [CFTRinh-172, reference compound], the “isorhamnetin-induced hyperpolarization of ocular PD” value in data set [1] is “inhibited”. In addition, the isorhamnetin-increased tear volume result in data set [2] is “completely suppressed”. Besides, the “block of isorhamnetin-induced CFTR Cl- currents (whole-cell)” value in data set [3] was “almost completely blocked”.

Regarding Triton X-100 [reference compound], in data set [4], the “cell viability (MTS), CorE cells” value is “markedly decreased cell viability”. Moreover, the “cell viability (MTS), ConjE cells” value in data set [5] is reported as “markedly decreased cell viability”.
